Results: patent publication US5824315A, “Binding affinity of antigenic peptides for MHC molecules” (Anergen, Inc., priority 1996, dated 1998)

System: HLA-DR2
Details: pH 6
Experimental: In order to compare the binding of various MBP peptides to DR2, purified DR2 at a concentration of 20 μg/ml was incubated with 50-fold molar excess of Bt-MBP peptides for 72 hours at varying pH, ranging from pH 5-10 binding buffer at 37° C. […] Monoclonal antibody against HLA-DR2 at a concentration of 20 μg/ml and BSA-biotin (with 0.014-1.80 pmoles (0.117-15 ng), were coated in 96-well microtiter plates (Nunc poly-Sorb, Baxter) overnight at 4° C. Plates were blocked with 1% fish gelatin. Prepared HLA-DR2-biotin peptide complexes were applied to the wells in duplicates ranging from 12.5 ng-200 ng (0.21-3.32 pmoles) in appropriate dilution buffers and incubated for 2 hours at room temperature. The wells were washed three times with PBS containing 0.01% Tween-20 to remove unbound peptide. Bound biotinylated peptides were detected colorimetrically using alkaline phosphatase conjugated streptavidin and p-nitrophenyl phosphate (disodium) in 0.1M diethnolamine as a substrate. Wells were read at 405 nm in microliter plate reader (Molecular Devices). The percent of DR2 with bound peptide was calculated using standard BSA-biotin (eight biotin molecules per BSA). Purified HLA-DR2 used in this study contains a mixture of DRB5*0101 and DRB1*1501 beta chains.
In the first experiment, the binding of MBP(84-102) peptide to purified DR2 was compared with MBP(83-102)Y83 peptide at various pH.

percent of DR2 occupied with bound peptide | SMILES
75% | CC[C@H](C)[C@H](NC(=O)[C@H](CC(N)=O)NC(=O)[C@H](CCCCN)NC(=O)[C@H](Cc1ccccc1)NC(=O)[C@H](Cc1ccccc1)NC(=O)[C@H](Cc1c[nH]cn1)NC(=O)[C@@H](NC(=O)[C@@H](NC(=O)[C@@H]1CCCN1C(=O)[C@H](CC(N)=O)NC(=O)[C@H](CCC(=O)O)NC(=O)[C@H](CC(=O)O)NC(=O)[C@H](CCCCN)NC(=O)CCCC[C@@H]1SC[C@@H]2NC(=O)N[C@@H]21)C(C)C)C(C)C)C(=O)N[C@H](C(=O)N[C@H](C(=O)N1CCC[C@H]1C(=O)N[C@@H](CCCNC(=N)N)C(=O)N[C@H](C(=O)N1CCC[C@H]1C(=O)N1CCC[C@H]1C(N)=O)[C@@H](C)O)[C@@H](C)O)C(C)C [MBP(83-102)K83, Bt-KDENPVVHFF KNIVTPRTPP-NH2]
40% | CC[C@H](C)[C@H](NC(=O)[C@H](CC(N)=O)NC(=O)[C@H](CCCCN)NC(=O)[C@H](Cc1ccccc1)NC(=O)[C@H](Cc1ccccc1)NC(=O)[C@H](Cc1c[nH]cn1)NC(=O)[C@@H](NC(=O)[C@@H](NC(=O)[C@@H]1CCCN1C(=O)[C@H](CC(N)=O)NC(=O)[C@H](CCC(=O)O)NC(=O)[C@H](CC(=O)O)NC(=O)[C@H](CCC(N)=O)NC(=O)CCCC[C@@H]1SC[C@@H]2NC(=O)N[C@@H]21)C(C)C)C(C)C)C(=O)N[C@H](C(=O)N[C@H](C(=O)N1CCC[C@H]1C(=O)N[C@@H](CCCNC(=N)N)C(=O)N[C@H](C(=O)N1CCC[C@H]1C(=O)N1CCC[C@H]1C(N)=O)[C@@H](C)O)[C@@H](C)O)C(C)C [MBP(83-102)Q83, Bt-QDENPVVHFF KNIVTPRTPP-NH2]
45% | CC[C@H](C)[C@H](NC(=O)[C@H](CC(N)=O)NC(=O)[C@H](CCCCN)NC(=O)[C@H](Cc1ccccc1)NC(=O)[C@H](Cc1ccccc1)NC(=O)[C@H](Cc1c[nH]cn1)NC(=O)[C@@H](NC(=O)[C@@H](NC(=O)[C@@H]1CCCN1C(=O)[C@H](CC(N)=O)NC(=O)[C@H](CCC(=O)O)NC(=O)[C@H](CC(=O)O)NC(=O)CCCC[C@@H]1SC[C@@H]2NC(=O)N[C@@H]21)C(C)C)C(C)C)C(=O)N[C@H](C(=O)N[C@H](C(=O)N1CCC[C@H]1C(=O)N[C@@H](CCCNC(=N)N)C(=O)N[C@H](C(=O)N1CCC[C@H]1C(=O)N1CCC[C@H]1C(N)=O)[C@@H](C)O)[C@@H](C)O)C(C)C [MBP(84-102), Bt-DENPVVHFFK NIVTPRTPP-NH2, reference compound]

More lines, now with the values behind:

SMILES | percent of DR2 occupied with bound peptide
CC[C@H](C)[C@H](NC(=O)[C@H](CC(N)=O)NC(=O)[C@H](CCCCN)NC(=O)[C@H](Cc1ccccc1)NC(=O)[C@H](Cc1ccccc1)NC(=O)[C@H](Cc1c[nH]cn1)NC(=O)[C@@H](NC(=O)[C@@H](NC(=O)[C@@H]1CCCN1C(=O)[C@H](CC(N)=O)NC(=O)[C@H](CCC(=O)O)NC(=O)[C@H](CC(=O)O)NC(=O)[C@H](C)NC(=O)CCCC[C@@H]1SC[C@@H]2NC(=O)N[C@@H]21)C(C)C)C(C)C)C(=O)N[C@H](C(=O)N[C@H](C(=O)N1CCC[C@H]1C(=O)N[C@@H](CCCNC(=N)N)C(=O)N[C@H](C(=O)N1CCC[C@H]1C(=O)N1CCC[C@H]1C(N)=O)[C@@H](C)O)[C@@H](C)O)C(C)C [MBP(83-102)A83, Bt-ADENPVVHFF KNIVTPRTPP-NH2] | 100%
CC[C@H](C)[C@H](NC(=O)[C@H](CC(N)=O)NC(=O)[C@H](CCCCN)NC(=O)[C@H](Cc1ccccc1)NC(=O)[C@H](Cc1ccccc1)NC(=O)[C@H](Cc1c[nH]cn1)NC(=O)[C@@H](NC(=O)[C@@H](NC(=O)[C@@H]1CCCN1C(=O)[C@H](CC(N)=O)NC(=O)[C@H](CCC(=O)O)NC(=O)[C@H](CC(=O)O)NC(=O)[C@H](CC(=O)O)NC(=O)CCCC[C@@H]1SC[C@@H]2NC(=O)N[C@@H]21)C(C)C)C(C)C)C(=O)N[C@H](C(=O)N[C@H](C(=O)N1CCC[C@H]1C(=O)N[C@@H](CCCNC(=N)N)C(=O)N[C@H](C(=O)N1CCC[C@H]1C(=O)N1CCC[C@H]1C(N)=O)[C@@H](C)O)[C@@H](C)O)C(C)C [MBP(83-102)D83, Bt-DDENPVVHFF KNIVTPRTPP-NH2] | 55%
CC[C@H](C)[C@H](NC(=O)[C@H](CC(N)=O)NC(=O)[C@H](CCCCN)NC(=O)[C@H](Cc1ccccc1)NC(=O)[C@H](Cc1ccccc1)NC(=O)[C@H](Cc1c[nH]cn1)NC(=O)[C@@H](NC(=O)[C@@H](NC(=O)[C@@H]1CCCN1C(=O)[C@H](CC(N)=O)NC(=O)[C@H](CCC(=O)O)NC(=O)[C@H](CC(=O)O)NC(=O)[C@H](Cc1ccccc1)NC(=O)CCCC[C@@H]1SC[C@@H]2NC(=O)N[C@@H]21)C(C)C)C(C)C)C(=O)N[C@H](C(=O)N[C@H](C(=O)N1CCC[C@H]1C(=O)N[C@@H](CCCNC(=N)N)C(=O)N[C@H](C(=O)N1CCC[C@H]1C(=O)N1CCC[C@H]1C(N)=O)[C@@H](C)O)[C@@H](C)O)C(C)C [MBP(83-102)F83, Bt-FDENPVVHFF KNIVTPRTPP-NH2] | 12%
